Laboratory results as given in US20050019742A1, “Methods for assessment of platelet aggregation” (priority 2002, published 2005).
Where a SMILES comes first, the peptide text is derived from it. Bridges are numbered along the chain shown (N, C = ends). [ ]: non-standard residue; d: D form. hArg = N=C(N)NCCCC[C@H](N)C(=O)O; Mpa = O=C(O)CCS

How the values were obtained:
platelet aggregation [1] = assay: ICHOR/Plateletworks whole blood platelet aggregation (platelet count), PPACK anticoagulant, ADP agonist; format: cell-based, human; details: for platelet inhibition measured by ICHOR/Plateletworks: samples in which Ultegra measures inhibition of 80% or greater, average lower end of a range reaching greater than 80%, PPACK whole blood, ADP 20 μM
Experimental: Whole blood platelet aggregation was performed using a procedure modified from that outlined in the Helena Plateletworks® brochure. PPACK anticoagulant was used instead of citrate due to the well-documented effect of citrate overestimating the level of platelet inhibition by all currently approved GPIIb-IIIa antagonists (Phillips et al., “Effect of Ca^++ on Integrilin™ GPIIb-IIIa Interactions: Enhanced GPIIb-IIIa Binding and Inhibition of Platelet Aggregation by Reductions in the Concentration of Ionized Calcium in Plasma Anticoagulated with Citrate,” Circulation 96:1488-1494 (1997); Nannizzi-Alaimo et al., “Effect of Citrate Anticoagulation and Platelet Agonist Concentration on the Inhibitory Activities of GPIIb-IIIa Antagonists,” Circulation 100:1710 (1999); Kereiakes et al., “Differential Effects of Citrate Versus PPACK Anticoagulation on Measured Platelet Inhibition by Abciximab, Eptifibatide and Tirofiban,” J. Thromb. Thrombolysis 12:123-127 (2001); Jennings et al., “The Pharmacodynamics of Parenteral Glycoprotein IIb/IIIa Inhibitors,” J. Interv. Cardiol. 15(1):45-60 (2002), each of which is hereby incorporated by reference in its entirety). For this assay, 1.0 ml of PPACK anticoagulated whole-blood was mixed with increasing concentrations of eptifibatide or tirofiban and incubated for at least 2 minutes. After addition of ADP (20 μM), the tube was inverted 15-20 times to ensure mixing, and the platelet count was performed immediately (test sample). A baseline tube was also drawn and handled exactly as the antagonist sample tube minus the addition of agonist. A platelet count was also performed on blood collected into EDTA per the manufacturer's instructions. Percent inhibition of platelet aggregation was obtained from the platelet inhibition/aggregation calculation wheel provided with Plateletworks®.
When testing samples containing Reopro, the ICHOR instrument never achieves more than 60% inhibition of aggregation. […]

platelet aggregation [2] = assay: Light transmission aggregometry (LTA) in PPACK platelet rich plasma, ADP-induced aggregation; format: cell-based, human; details: samples in which Ultegra measures inhibition of 80% or greater, average lower end of a range reaching greater than 80%, ADP 20 μM
Experimental: Sufficient blood volume was collected to complete matched comparisons for each donor in all three assays. Using a 19 g butterfly needle, blood was collected by venipuncture into a plastic syringe and transferred to a tube containing PPACK anticoagulant (0.3 mM final concentration) or into PPACK vacuettes provided by Ultegra®. An EDTA baseline tube was also drawn per Plateletworks® recommendation. One 10 mL sample of PPACK blood was centrifuged at 135 g for 15 minutes to obtain platelet rich plasma (“PRP”) for use in traditional light transmission aggregometry. The residual blood from this tube was centrifuged at 1500 g for 15 minutes to obtain platelet poor plasma (“PPP”). PRP was diluted to 250,000/mm^3 with autologous PPP. Diluted PRP (0.5 ml) was added to an aggregation cuvette and placed into the 37° C. aggregation chamber. Eptifibatide (125-4000 nM) or tirofiban (25-200 nM) was added to PRP, incubated for at least two minutes. 50 μl ADP (20 μM final concentration) was added to 0.45 ml PRP and the aggregation response was recorded. A baseline aggregation response (no antagonist present) was determined for each donor. Percent aggregation was calculated at the point of maximum light transmission obtained within five minutes. Percent inhibition of aggregation (IPA) was calculated using the following formula: [formula]

Row | Molecule | platelet inhibition measured by ICHOR/Plateletworks (platelet aggregation [1]) | platelet inhibition measured by LTA (platelet aggregation [2]) | inhibition of aggregation (maximum achieved on ICHOR instrument) (platelet aggregation [1]; samples containing Reopro, microaggregates are counted as aggregation)
1 | N=C(N)NCCCC[C@@H]1NC(=O)CCSSC[C@@H](C(N)=O)NC(=O)[C@@H]2CCCN2C(=O)[C@H](Cc2c[nH]c3ccccc23)NC(=O)[C@H](CC(=O)O)NC(=O)CNC1=O [eptifibatide] ([Mpa][hArg]GDWPC-NH2; disulfide 1-7) | ≥ 30% | ≥ 30% | 
2 | CCCCS(=O)(=O)N[C@@H](Cc1ccc(OCCCCC2CCNCC2)cc1)C(=O)O [tirofiban] | ≥ 35% | ≥ 35% | 
3 | Reopro: antibody based GPIIbIIIa antagonist (antibody, chains of the INN, looked up, V domains shown, Fab, antibody based GPIIbIIIa antagonist) VH: EVQLQQSGTVLARPGASVKMSCEASGYTFTNYWMHWVKQRPGQGLEWIGAIYPGNSDTSYIQKFKGKAKLTAVTSTTSVYMELSSLTNEDSAVYYCTLYDGYYVFAYWGQGTLVTVSA VL: EIVLTQSPVTLSVTPGDSVSLSCRASRDISNNLHWFQQTSHESPRLLIKYASQSMSGIPSRFSGSGSGTDFTLSINSVETEDFGMYFCQQTNSWPYTFGGGTKLEIK |  |  | ≤ 60%
